# From US10828281B2, “Non-hydrophobic compounds for use in treating metastasis and/or cartilage defect” (Friedrich-Alexander-Universität Erlangen-Nürnberg, priority 2015, dated 2020)
# “Also recorded” adds a separate entry of the source.
# Assays:
# [1] = tested on: human Mel-Im melanoma cells; experiment: Boyden chamber migration assay; assay type: cell-based; details: compound 1 μM, MIA 200 ng/mL, FIG. 4
# Method: The melanoma cell line Mel-Im, established from a human metastatic bioptic sample (generous gift from Dr. Johnson, University of Munich, Germany) was used for the Boyden chamber migration experiments. All cells were maintained in DMEM (PAA, Pasching, Germany) supplemented with penicillin (400 U/mL), streptomycin (50 μg/mL), L-glutamine (300 μg/mL) and 10% fetal calf serum (Pan Biotech GmbH, Aidenbach, Germany) and split in a 1:6 ratio every three days. Migration assays were performed in Boyden Chambers containing polycarbonate filters with […] (Neuro Probe, Gaithersburg, Md., USA) essentially as described. MIA was added to the cell suspension at a final concentration of 200 ng/mL. Selected compounds were used at a final concentration of 1 μM. Experiments were carried out in triplicates and repeated at least three times.
# MIA-MIA interaction [2] = target: T1, MIA-MIA interaction (Homo sapiens, UniProt Q16674); experiment: heterogeneous transition metal-based fluorescence polarization (HTFP) assay of MIA dimerization; assay type: binding; details: FIG. 3
# T1 sequence (Q16674 25-131): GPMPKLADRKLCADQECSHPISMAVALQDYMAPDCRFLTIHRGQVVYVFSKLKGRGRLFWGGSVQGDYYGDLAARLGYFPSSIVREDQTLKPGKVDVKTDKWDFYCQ
# Method: The dimerization of the MIA protein is for example measured by a heterogeneous transition metal-based fluorescence polarization (HTFP) assay, wherein the ratio P/P0 is measured. P is the fluorescence polarization signal of a MIA protein labeled with a transition metal complex in the presence of substrate bound MIA-protein and of a compound to be tested. P0 is the fluorescence polarization signal of free MIA-protein labeled with said luminescent transition metal complex in the absence of substrate bound MIA-protein and in the absence of the compound. In the absence of the compound, usually, the labeled MIA-protein would interact with the substrate bound MIA-protein, which, in turn, would contribute to a reduction in rotational mobility of the labeled MIA-protein, and therefore, the fluorescence polarization signal would increase upon such interaction. If, additionally, a compound is present that interferes with such interaction, no or little dimerization/aggregation occurs and no or little increase in fluorescence polarization signal would be detected. The smaller or even more negative P/P0 is, the stronger such interference with dimer formation and aggregation is, and the better such compound prevents or breaks up dimerization/aggregation of MIA protein. In an alternative embodiment, binding of the compound to MIA protein is determined by NMR, e.g., heteronuclear NMR, e.g., ^15N-^1H-HSQC-NMR.
# All listed compounds that were screened for their ability to interfere with the MIA-MIA interaction (Table 1) in a heterogeneous transition metal-based fluorescence polarization (HTFP) assay previously developed (Riechers, A., et al., Heterogeneous transition metal-based fluorescence polarization (HTFP) assay for probing protein interactions. Biotechniques, 2009. 47(4): p. 837-44). […] The molecular structures of the compounds showing interference with the MIA-MIA interaction in the HTFP assay are shown in Table 1.
# kidney cells HEK-293 [3] = experiment: cellular attachment of kidney cells; assay type: cell-based, human; details: 7.8 μM, in vitro, HEK-293, FIG. 5D
# Method: (§1) In order to assess whether compounds of the present invention show any adverse effects on normal cells, human fibroblasts and kidney cells were treated with the compounds 1, 2, 3, 4, 5, and 6, respectively, in vitro at a concentration of 7.8 μM in analogy to previous studies (Schmidt, J., et al., Targeting melanoma metastasis and immunosuppression with a new mode of melanoma inhibitory activity (MIA) protein inhibition. PLoS One, 2012. 7(5): p. e37941; Riechers, A., et al., Heterogeneous transition metal-based fluorescence polarization (HTFP) assay for probing protein interactions. Biotechniques, 2009. 47(4): p. 837-44).
# human fibroblasts [4] = experiment: cellular attachment of human fibroblasts; assay type: cell-based; details: 7.8 μM, in vitro, FIG. 5B
# Method: as §1
# kidney cells HEK-293 [5] = experiment: proliferation of kidney cells; assay type: cell-based, human; details: 7.8 μM, in vitro, HEK-293, FIG. 5C
# Method: as §1
# human fibroblasts [6] = experiment: proliferation of human fibroblasts; assay type: cell-based; details: 7.8 μM, in vitro, FIG. 5A
# Method: as §1
# [7] = tested on: human melanoma cell line Mel Im; experiment: proliferation of melanoma cell line Mel Im; assay type: cell-based; details: FIG. 6
# MIA-MIA interaction [8] = target: T1, MIA-MIA interaction; details: disclosed in WO 2011/113604; cited from earlier work
Compound,MIA activity on melanoma cell migration [1],fluorescence polarization of Ru-(bpy)3 labelled MIA (interference with the MIA-MIA interaction) (MIA-MIA interaction [2]),effect on cellular attachment of kidney cells (kidney cells HEK-293 [3]),effect on cellular attachment of human fibroblasts (human fibroblasts [4]),effect on proliferation of kidney cells (kidney cells HEK-293 [5]),effect on proliferation of human fibroblasts (human fibroblasts [6]),proliferation of the human melanoma cell line Mel Im after treatment [7],blocking of the MIA-MIA interaction (MIA-MIA interaction [8])
"COc1ccc2[nH]c(CN3CCNCC3)nc2c1 [Compound 5, 5-methoxy-2-(piperazin-1-ylmethyl)-1H-1,3-Benzodiazole]",reduction,significant decreases,no negative effects,no negative effects,no negative effects,no negative effects,could not be found,
"CCC(C)N1CC(=O)C(c2nc3ccccc3[nH]2)=C1N (stereo not shown) [Compound 1, 5-amino-4-(1H-1,3-benzodiazol-2-yl)-1-(butan-2-yl)-2,3-dihydro-1H-pyrrol-3-one]",reduction; also recorded: inhibition,significant decreases,no negative effects,no negative effects,no negative effects,no negative effects,significant decrease; also recorded: inhibition,
"CCCCNC(=O)c1c(O)nc2c(C)cccn2c1=O [Compound 6, N-butyl-2-hydroxy-9-methyl-4-oxo-4H-pyrido[1,2-a]pyrimidine-3-carboxamide]",reduction,significant decreases,no negative effects,no negative effects,no negative effects,no negative effects,could not be found,
"CCCCCNC(=O)Cc1cc(=O)[nH]c(=O)[nH]1 [Compound 3, 2-(2,6-dioxo-1,2,3,6-tetrahydropyrimidin-4-yl)-N-Pentylacetamide]",reduction; also recorded: inhibition,significant decreases,no negative effects,no negative effects,no negative effects,no negative effects,could not be found,
"CC(=O)c1c(C)cn(CC(O)CN2CCNCC2)c1C (stereo not shown) [Compound 4, 1-{1-[2-hydroxy-3-(piperazin-1-yl)propyl]-2,4-dimethyl-1H-pyrrol-3-yl}ethan-1-one]",reduction,significant decreases,no negative effects,no negative effects,no negative effects,no negative effects,could not be found,
"CS(=O)(=O)NCC#CCN1CCc2ccccc2C1 [Compound 2, N-[4-(1,2,3,4-tetrahydroisoquinolin-2-yl)but-2-yn-1-yl]methanesulfonamide]",reduction; also recorded: inhibition,significant decreases,no negative effects,no negative effects,no negative effects,no negative effects,could not be found,
AR71: a peptide having the amino acid sequence FHWRYPLPLPGQ (SEQ ID NO:1),,,,,,,,able to block the MIA-MIA interaction
